Assay results from patent publication US8445207B2, “Genes based on thalidomide, valproic acid and methotrexate treatment for screening of drug inducing teratogenicity and screening method using thereof” (priority 2009, dated 2013).

Tested on: JEG-3 (human placental choriocarcinoma cell line)
Assay: Oligo microarray gene expression in drug-treated JEG-3 (Cy5 treated / Cy3 control)
Format: cell-based
Conditions: treated at IC30, up-regulated gene
Protocol: Thalidomide, valproic acid, and methotrexate were treated to human placental choriocarcinoma cell line at the concentrations determined above (Inhibition concentration: the concentration that can kill approximately 30% of the total cells, that is the concentration of 70% viability, IC30). mRNA was extracted from the drug treated cell line, followed by synthesis of cDNA which was labeled with Cy5. The non-treated control was labeled with Cy3. The fluorescence labeled cDNA was hybridized with 41K (thalidomide), 44K (valproic acid, methotrexate) human whole genome oligomicroarray chips (Agilent, USA), followed by fluorescent image scanning to analyze gene expression patterns (see FIG. 4). Volcano Plot of each substance was also attached. Y axis indicates probability (generally converted by −log 10). X axis indicates differential expression, which is presented by log-ratio.
Total RNA was separated from the treated cell by using trizol reagent (Invitrogen Life Technologies, USA) according to the manufacture's instructions, followed by purification using RNeasy mini kit (Qiagen, USA). Genomic DNA was eliminated during RNA purification using RNase-free DNase set (Qiagen, USA).
30 μg of the total RNA obtained above and 2 μg (1 μg/μl) of oligo (dT) primer were mixed, followed by reaction at 65° C. for 10 minutes. Annealing was performed in ice right after the reaction. Reagents were prepared as shown in Table 1 for reverse transcription of the annealed RNA.
The total RNA separated from the control group JEG-3 cells was labeled with Cy3-dUTP (green) and the total RNA separated from the experiment group JEG-3 cells treated with thalidomide, valproic acid and methotrexate was labeled with Cy5-dUTP (red). At this time, the two samples were mixed and purified by Microcon YM-30 column (Millipore, USA).
Hybridization and washing were performed by the manufacturer's (GenoCheck, Korea) instructions. Particularly, hybridization was performed in a 62° C. oven for 12 hours. As a DNA microarray chip, 44 k whole human genome oligo microarray (Agilent, USA) was used. After washing (2 minutes with 2×SSC/0.1% SDS, three minutes with 1×SSC, 2 minutes with 0.2×SSC), the slide was dried by centrifugation at 800 rpm for 3 minutes.
Hybridization image on the slide was scanned with Genepix 4000B (Axon Instruments, USA). Fluorescence image of the chip on which non-hybridized genes had been washed out was obtained by using laser fluorescence scanner. Green fluorescence image indicates the activity of gene specifically expressed in the control group and red fluorescence image indicates the activity of gene specifically expressed in the experimental group. […] Scanned image was analyzed by using GenePix 4.1 software (Axon Instruments, USA) to calculate gene expression rate.

[1] = (j) Response to oxidative stress
[2] = (k) common gene which has no function

## CCCC(CCC)C(=O)O [VPA, valproic acid]
(h) Nervous system development
  Ratio of intermediate value, gene GSTM3 (NM_000849, GLUTATHION E S-TRANSFERASE M3 (BRAIN)): 3.69
  Ratio of intermediate value, gene HEYL (NM_014571, HAIRY/ENHANCER-OF-SPLIT RELATED WITH YRPW MOTIF-LIKE): 2.13
  Ratio of intermediate value, gene IRS2 (NM_003749, INSULIN RECEPTOR SUBSTRATE 2): 2.09
  Ratio of intermediate value, gene KCNQ2 (NM_172109, POTASSIUM VOLTAGE-GATED CHANNEL, KQT-LIKE SUBFAMILY, MEMBER 2): 4.41
  Ratio of intermediate value, gene KDELC1 (NM_015831, ACETYLCHOLINESTERASE (YT BLOOD GROUP)): 2.47
  Ratio of intermediate value, gene KIF5C (AB011103, KINESIN HEAVY CHAIN NEURON-SPECIFIC 2): 11.94
  Ratio of intermediate value, gene MAPT (NM_016835, MICROTUBULE-ASSOCIATED PROTEIN TAU): 3.18
  Ratio of intermediate value, gene MYLIP (NM_013262, MYOSIN REGULATORY LIGHT CHAIN INTERACTING PROTEIN): 2.88
  Ratio of intermediate value, gene NRXN3 (NM_004796, NEUREXIN 3): 2.25
  Ratio of intermediate value, gene PPIL6 (NM_000115, ENDOTHELIN RECEPTOR TYPE B): 3.13
  Ratio of intermediate value, gene PRPS1 (NM_002764, PHOSPHORIBOSYL PYROPHOSPHATE SYNTHETASE 1): 2.12
  Ratio of intermediate value, gene SCG10; SGC10; SCGN10 (S82024, STATHMIN-LIKE 2): 2.41
  Ratio of intermediate value, gene SDFR1 (NM_012428, NEURO-PLASTIN): 2.26
  Ratio of intermediate value, gene SELM (BX537571, FYN ONCOGENE RELATED TO SRC, FGR, YES): 3.34
  Ratio of intermediate value, gene SEMA6C (NM_030913, SEMA DOMAIN, TRANSMEMBRANE DOMAIN (TM), AND CYTOPLASMIC DOMAIN, (SEMAPHORIN) 6C): 2.77
  Ratio of intermediate value, gene TUBB2 (NM_001069, TUBULIN, BETA 2A): 3.11
  Ratio of intermediate value, gene TWSG1 (NM_020648, TWISTED GASTRULATION HOMOLOG 1 (DROSOPHILA)): 2.56
(i) Neuron apoptosis
  Ratio of intermediate value, gene GCLM (CR598364, GLUTAMATE-CYSTEINE LIGASE, MODIFIER SUBUNIT): 2.61
  Ratio of intermediate value, gene GTF2A1 (BC028148, TUMOR NECROSIS FACTOR (TNF SUPERFAMILY, MEMBER 2)): 2.15
  Ratio of intermediate value, gene HPCAL4 (BC028066): 6.07
  Ratio of intermediate value, gene KRAS2 (BC029545, V-HA-RAS HARVEY RAT SARCOMA VIRAL ONCOGENE HOMOLOG): 2.62
  Ratio of intermediate value, gene LIG4 (NM_002312, LIGASE IV, DNA, ATP-DEPENDENT): 2.19
[1]
  Ratio of intermediate value, gene DKFZp761B1514 (AK025742, UNCOUPLING PROTEIN 2 (MITOCHONDRIAL, PROTON CARRIER)): 2.39
  Ratio of intermediate value, gene DYRK3 (BC030009, SELENOPROTEIN P, PLASMA, 1): 5.57
  Ratio of intermediate value, gene FTH1 (BC006523, SERUM/GLUCOCORTICOID REGULATED KINASE 2): 2.13
  Ratio of intermediate value, gene GPX3 (NM_002084, GLUTATHIONE PEROXIDASE 3 (PLASMA)): 2.10
  Ratio of intermediate value, gene HMOX1 (NM_002133, HEME OXYGENASE (DECYCLING) 1): 2.85
  Ratio of intermediate value, gene MOSPD1 (H18681, SULFIREDOXIN 1 HOMOLOG (S. CEREVISIAE)): 3.56
  Ratio of intermediate value, gene RPL4 (AK094940, GLUTAMATE-CYSTEINE LIGASE, CATALYTIC SUBUNIT): 2.49
  Ratio of intermediate value, gene TXNIP (NM_006472, THIOREDOXIN INTERACTING PROTEIN): 4.52
[2]
  Ratio of intermediate value, gene ATP10B (AB018258, ATPase, Class V, type 10B): 2.03
  Ratio of intermediate value, gene BQ186674 (cDNA clone UI-E-EJ1-ajr-f-10-0-UI, Hypothetical gene supported by AF086204): 2.79
  Ratio of intermediate value, gene BX111592 (Transcribed locus, moderately similar to XP_066443.6 PREDICTED: similar to paraneoplastic antigen like 6A): 1.50
  Ratio of intermediate value, gene CGA (NM_000735, Glycoprotein hormones, alpha polypeptide): 2.14
  Ratio of intermediate value, gene COBLL1 (BX649112, COBL-like 1): 1.52
  Ratio of intermediate value, gene CYP19A1 (AK023571, Cytochrome P450, family 19, subfamily A, polypeptide 1): 1.78
  Ratio of intermediate value, gene FLJ11017 (AK001879, Hypothetical protein FLJ11017): 1.87
  Ratio of intermediate value, gene GLCCI1 (AK126731, Glucocorticoid induced transcript 1): 2.27
  Ratio of intermediate value, gene KIAA0310 (AB002308, KIAA0310): 1.59
  Ratio of intermediate value, gene MGC27016 (AK125877, Hypothetical protein MGC27016): 2.62
  Ratio of intermediate value, gene NCOA3 (NM_181659, Nuclear receptor coactivator 3): 1.62
  Ratio of intermediate value, gene RGS2 (BC042755, Regulator of G-protein signalling 2, 24 kDa): 3.04
  Ratio of intermediate value, gene SIAT7A (BC063830, ST6 (alpha-N-acetyl-neuraminyl-2,3-beta-galactosyl-1,3)-N-acetylgalactosaminide alpha-2,6-sialyltransferase 1): 1.69
  Ratio of intermediate value, gene SIAT8D (NM_005668, ST8 alpha-N-acetyl-neuraminide alpha-2,8-sialyltransferase 4): 1.79
  Ratio of intermediate value, gene SLC7A8 (Y18483, Solute carrier family 7 (cationic amino acid transporter, y+ system), member 8): 2.48
  Ratio of intermediate value, gene SLC40A1 (AK023574, Solute carrier family 40 (iron-regulated transporter), member 1): 1.70
  Ratio of intermediate value, gene TFCP2L4 (BC036890, Grainyhead-like 3 (Drosophila)): 3.12
  Ratio of intermediate value, gene TTF2 (AB209845, Transcription termination factor, RNA polymerase II): 1.81
  Ratio of intermediate value, gene TUBB3 (AK122757, Tubulin, beta 3): 1.70
  Ratio of intermediate value, gene TncRNA (AF001893, Trophoblast-derived noncoding RNA): 3.61
